Legend:
Human stem cells (HSC) [1] = assay type: cell-based
IFITM3 [2] = molecular target: T1, IFITM3 (Homo sapiens, UniProt Q01628); assay type: cell-based; set-up: treated with 10 ng/ml type 1 interferon (IFNβ) overnight to induce IFITM3 expression; endogenous in cells; host or cells: THP-1 (human monocytic cell line), IFNβ-treated
IFITM3 [3] = molecular target: T1, IFITM3; assay type: cell-based; set-up: treated with 10 ng/ml type 1 interferon (IFNβ) overnight to induce IFITM3 expression; endogenous in cells; host or cells: THP-1 (human monocytic cell line), IFNβ-treated; remark: listed apart in the source
U87 cells = experiment: HIV-GFP infection of U87 cells (FIG. 2); assay type: cell-based; conditions: MOI 0.3, tested at 2.5, 5, or 10 μM
Method: Next, an experiment was performed in U87 cells. These cells differ from THP-1 in that they express IFITM3 and TRIM5. Thus only inhibitors with reduced CypA inhibition will rescue infection. This functionally tests whether the inhibitors have lost CypA inhibition, but retain IFITM3 inhibition.
U87 cells were infected at an MOI of 0.3 in the presence of DMSO (0.1% v/v) or inhibitors at 2.5, 5, or 10 μM (left bar to right bar for each indicated compound, respectively). Inhibition of IFITM3 raises infectivity. Unlike other inhibitors, BG147 gives maximal infection enhancement at the lowest concentration of 2.5 μM. Other molecules achieve maximal infection rescue at the highest concentration.

Human stem cells (HSC) [4] = experiment: Mean fluorescent intensity of transduced human stem cells (FIG. 7); assay type: cell-based; conditions: for overall performance as transduction enhancer in stem cells: Examples 5 and 6
Method: Here a different measurement was made of transgene expression using the cells from the same experiment as that above (Example 5). Rather than measuring the number of cells transduced (% infection) the mean fluorescent intensity (greenness of the transgene expressing cells) was measured.

CypA = CypA (Homo sapiens, UniProt P62937); experiment: biochemical; assay type: binding; conditions: for Kd / Max Response: SPR, Biacore, 25° C.
Method: CypA binding was carried out using surface plasmon resonance as described (Warne J Biol Chem. 2016 Feb. 26; 291 (9): 4356-73).
Surface Plasmon Resonance (SPR) using Biacore at 25° C. was used to study the binding interactions between CypA and various inhibitors. The SPR binding experiments used a duel flow cell with a blank reference. The sensor chip surface was initially activated with a mixture of N-hydroxysuccinimide (NHS,) and N-(3-dimethyl-aminopropyl)-N′-ethyl-carbodiimide hydrochloride (EDC) for 420 s with a flow rate of 10 μl/min on blank flow cell 1 in addition to flow cell 2.
CypA protein was diluted to a concentration of 50 μg/mL by the addition of 10 mM sodium acetate pH 5 solution before immobilisation and covalent attachment to the carboxy-methylated dextran matrix of the Biacore CM5 sensor chip. CypA was run against the surface for 420 s and then any unreacted surface was quenched by 420 s of ethanolamine.
Immobilisations were carried out in the presence of JW47 (Warne J Biol Chem. 2016 Feb. 26; 291 (9): 4356-73).
No regeneration stage was required if the dissociation time was sufficient.
Solvent correction was carried out in each experiment using 8 different DMSO dilutions as reference: 2.8%, 2.6%, 2.4%, 2.2%, 2%, 1.8%, 1.6% & 1.5%.
A 50/50 mixture of buffer and DMSO is required to include a wash cycle in the experiment.
50 μl of CypA (0.1 mg/ml)+40 μL of 10 mM sodium acetate pH5+10 μl of 600 μM of JW47 DMSO solution. This mixture was allowed to stand at room temperature for 10 mins prior to set-up in the injection rack.

Human stem cells (HSC) [5] = experiment: Cell viability of human stem cells (FIG. 5); conditions: compared with PS+LB treatment
IFITM3 [6] = molecular target: T1, IFITM3; assay type: cell-based; set-up: treated with 10 ng/ml type 1 interferon (IFNβ) overnight to induce IFITM3 expression; endogenous in cells; host or cells: THP-1 (human monocytic cell line), IFNβ-treated; remark: listed apart in the source
[7] = system: SARS-COV-2 (Alpha, Delta or Omicron isolates); experiment: SARS-COV-2 replication in Calu-3 lung epithelial cells by RT-qPCR (FIG. 9B); assay type: cell-based
IFITM3 [8] = molecular target: T1, IFITM3; experiment: IFITM3 levels by immunoblot in IFNβ-treated THP-1 cells (FIG. 9A); assay type: cell-based; set-up: treated with 10 ng/ml type 1 interferon (IFNβ) overnight to induce IFITM3 expression; endogenous in cells; host or cells: THP-1 (human monocytic cell line), IFNβ-treated; conditions: 5 μM, 6 hours; Actin loading control
Method: THP-1 cells (human monocytic cell line) were treated with […] Type I interferon (IFNβ) overnight to induce IFITM3 expression. […] Protein samples were harvested 6 hours later and the IFITM3 levels measured by immunoblot with Actin detected as a loading control. IFN induces IFITM3.

CypA, sequence (P62937 whole entry): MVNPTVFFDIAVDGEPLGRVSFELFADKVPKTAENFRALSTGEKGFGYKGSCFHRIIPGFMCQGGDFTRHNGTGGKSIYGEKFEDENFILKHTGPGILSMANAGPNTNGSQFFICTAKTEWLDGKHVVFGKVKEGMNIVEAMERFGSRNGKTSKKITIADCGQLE
T1 sequence (Q01628 whole entry): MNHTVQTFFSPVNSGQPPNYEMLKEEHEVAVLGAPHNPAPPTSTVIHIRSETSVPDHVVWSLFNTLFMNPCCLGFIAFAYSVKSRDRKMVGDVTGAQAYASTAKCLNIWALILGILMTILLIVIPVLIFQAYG

Compound	transduction enhancement (% infected human stem cells), first donor (Human stem cells (HSC) [1]; 48 hours post transduction, FIG. 4)	transduction enhancement (% infected human stem cells), second HSC donor (Human stem cells (HSC) [1]; 48 hours post transduction, FIG. 6)	combination effect on number of transduced cells (Human stem cells (HSC) [1]; BG147 at 2.5 μM with PS and LB, second HSC donor)	rescue of infection from IFN (% infected cells) (IFITM3 [2])	relative potency in rescue of infection (IFITM3 [3])	rescue of infection from the antiviral effect of IFN (IFITM3 [3])	concentration giving maximal infection enhancement (U87 cells) [µM]	overall performance as transduction enhancer in stem cells (Human stem cells (HSC) [4])	mean fluorescent intensity (greenness of transgene expressing cells) (Human stem cells (HSC) [4]; treatment with 2.5 μM BG147+PS+LB)	koff (CypA) [s⁻¹]	kon (CypA) [M⁻¹ s⁻¹]	Kd (CypA; Kd (Affinity)) [µM]	Kd (CypA; Kd (Kinetics)) [µM]	Max Response (CypA) [RU]	cell viability after treatment (Human stem cells (HSC) [5])	fold rescue compared to inhibited baseline (IFITM3 [6]) [fold]	inhibition of viral replication (E copies, fold change vs DMSO) [7]	IFITM3 protein levels by immunoblot (IFITM3 [8])
CC[C@@H]1NC(=O)[C@H]([C@H](O)[C@H](C)C/C=C/c2ccc(C(=O)OCCn3ccnc3)c3ccccc23)N(C)C(=O)[C@H](C(C)C)N(C)C(=O)[C@H](CC(C)C)N(C)C(=O)[C@H](CC(C)C)N(C)C(=O)[C@@H](C)NC(=O)[C@H](C)NC(=O)[C@H](CC(C)C)N(C)C(=O)[C@H](C(C)C)NC(=O)[C@H](CC(C)C)N(C)C(=O)CN(C)C1=O [BG147, 2-(1H-imidazol-1-yl)-ethyl-4-((4R,5R,E)-5-((2S,5S,11S,14S,17S,20S,23R,26S,29S,32S)-5-ethyl-11,17,26,29-tetraisobutyl-14,32-diisopropyl-1,7,10,16,20,23,25,28,31-nonamethyl-3,6,9,12,15,18,21,24,27,30,33-undecaoxo-1,4,7,10,13,16,19,22,25,28,31-undecaazacyclotritriacontan-2-yl)-5-hydroxy-4-methylpent-1-en-1-yl)-1-naphthoate]	out performs other inhibitors and is as effective as state of the art transduction enhancer	out-performed other inhibitors including state of the art transduction enhancer combination of LB+PS	additive with PS and LB giving the best number of transduced (infected) cells	completely rescued infection from IFN	more potent than CsH	rescue infection from the antiviral effect of IFN	2.5	performs best	greenest cells	0.0216	9750	5.27	2.22	14.0	viability is good	–	–	–
CC[C@@H]1NC(=O)[C@H]([C@H](O)[C@H](C)C/C=C/c2ccc(C(=O)OCCn3ccnc3)cc2)N(C)C(=O)[C@H](C(C)C)N(C)C(=O)[C@H](CC(C)C)N(C)C(=O)[C@H](CC(C)C)N(C)C(=O)[C@@H](C)NC(=O)[C@H](C)NC(=O)[C@H](CC(C)C)N(C)C(=O)[C@H](C(C)C)NC(=O)[C@H](CC(C)C)N(C)C(=O)CN(C)C1=O [JW3-158, 2-(1H-imidazol-1-yl)ethyl-4-((4R,5R,E)-5-((2S,5S,11S,14S,17S,20S,23R,26S,29S,32S)-5-ethyl-11,17,26,29-tetraisobutyl-14,32-diisopropyl-1,7,10,16,20,23,25,28,31-nonamethyl-3,6,9,12,15,18,21,24,27,30,33-undecaoxo-1,4,7,10,13,16,19,22,25,28,31-undecaazacyclotritriacontan-2-yl)-5-hydroxy-4-methylpent-1-en-1-yl)benzoate]	–	–	–	–	–	–	–	not working so well	–	0.00217	13400	1.83	0.16	27.0	viability is good	29.2	inhibits Delta and Omicron replication to a greater extent than Alpha	most potent effect

Reference: patent US20250388625A1, “CYCLOSPORINE ANALOGUES” (priority 2022, published 2025)
